The values below come from ChEMBL document CHEMBL3861978, “Dinoflagellate-Related Amphidinolides from the Brazilian Octocoral Stragulum bicolor” (J Nat Prod, 2016).

The test in a line: Cytotoxicity against human HCT116 cells measured after 72 hrs by MTT assay. It counts as functional, cell-based. The conditions noted are these: HCT-116, 72 h.

Structures are written as SMILES.

In turn, `C=C1/C=C(\C)[C@](C)(O)C[C@H](O)CC(=O)[C@H](O)[C@@H](O)[C@H](C)C[C@H](C)OC(=O)/C(C)=C/CC/C=C/C(O)C(O)C[C@H](C)C1` (some centres not stated) returned an IC50 of 9.8 µM. This lies in the single-digit micromolar range.
In the case of `C=C1/C=C(\C)[C@@H](C)[C@@H](O)CC(=O)[C@@H](C)CC(=O)C[C@H]2CC[C@@H](O2)[C@@H](/C=C/C=C(\C)[C@@H](O)C(=C)CCC)OC(=O)C[C@@H]2O[C@H](C[C@H]2C)[C@H](O)C1`, the IC50 was found to be 10.3 µM.
